In patent US20260068882A1, “ARTHROPOD CONTROLLING COMPOSITION” (Firmenich SA, priority 2019, published 2026):

How the values were obtained:
Aedes aegypti [1] = assay: In vitro K&D (Klun & Debboun) assay, mosquitoes biting through treated cloth over membrane-blood reservoir; type: in vivo
Method: Controlling efficacy was tested against the yellow fever mosquito, A. aegypti Rockefeller strain.
Observations of controlling efficacy were made on host-seeking females of uniform age, 5 to 10 days post-eclosion from pupae. Tested hungry females had access to 10% sugar solution but were not blood-fed.
The controlling efficacy in vitro was measured using the Klun & Debboun (K&D) assay test module [Klun J A, Kramer M, Debboun M. A new in vitro bioassay system for discovery of novel human-use mosquito controlling compounds. J Am Mosq Control Assoc. 2005; 21:64-70], which is an adaptation of the K&D module [Klun J A, Debboun M. A new module for quantitative evaluation of controlling efficacy using human subjects. J Med Entomol. 2000; 37:177-81.], initially developed and used for quantitative measurement of the efficacy of mosquito controlling compounds on human subjects.
In the in vitro assay the module is coupled with a membrane-blood reservoir, consisting of a unit with six wells that are filled with 7 mL defibrinated pig blood maintained at a constant temperature of 38° C. and covered with a bovine collagen film (Devro plc, Edicol-MX400 CLR 100M REEL) as the membrane. Over the membrane a piece of cotton cloth (Baptist Roh, 100% cotton, weight: 69.0 g/m^2, thread density: warp and woof 26.5×26.5 thread/cm, Modessa Basel) was placed after being treated with 80 μL of the tested stimuli.
The K&D unit, containing five mosquitoes in each cell was finally placed on top of the treated cloth. Then the numbers of mosquitoes biting in each cell within a 3-min exposure were recorded. This procedure was repeated until 6 replicate exposures and observations (i.e. 30 mosquitoes) were made.

Aedes aegypti [2] = assay: In vitro Warm Body assay, mosquitoes landing on treated warm body; type: in vivo; conditions: for % of mosquitoes' repellency: normalised to landing with 100% ethanol
Method in brief: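 Adapted Warm Body assay with host-seeking, non-blood-fed, sugar-fed A. aegypti Rockefeller females aged 5–10 days (10–12 days in one set); cages held 30 (or 25) females at 150 lux. Landings were counted automatically. Doses in ethanol were 0.0016%, 0.04% and 1% in triplicate, or a single replicate across 0.0016–1%.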

[3] = Aedes aegypti, read-out: decrease of landings

SMILES: Cc1ccc2c(c1)CC(C)(CO)C2 (stereo not shown) [ingredient #2, (2,5-dimethyl-2,3-dihydro-1H-inden-2yl)methanol]
- % repulsion (Aedes aegypti [1]; 0.0008% in ethanol): 21.5%
- % repulsion (Aedes aegypti [1]; 0.004% in ethanol): 25.3%
- % repulsion (Aedes aegypti [1]; 0.02% in ethanol): 33.8%
- % repulsion (Aedes aegypti [1]; 0.1% in ethanol): 57.1%
- % repulsion (Aedes aegypti [1]; 0.5% in ethanol): 84.6%
- % repulsion (Aedes aegypti [1]; 2.5% in ethanol): 92.3%
- concentration from which a significant repellent effect is shown (Aedes aegypti [1]; on its own, in ethanol): ≥ 0.1%
- % of mosquitoes' repellency (Aedes aegypti [2]; 0.00032% concentration): 18%
- % of mosquitoes' repellency (Aedes aegypti [2]; 0.00071% concentration): 46%
- % of mosquitoes' repellency (Aedes aegypti [2]; 0.0016% concentration): 14%
- number of mosquitoes landed on the Warm Body (Aedes aegypti [2]; 0.0016% in ethanol (Table 7, one replicate)): 68
- % of mosquitoes' repellency (Aedes aegypti [2]; 0.0036% concentration): 46%
- % of mosquitoes' repellency (Aedes aegypti [2]; 0.0053% concentration): 0%
- % of mosquitoes' repellency (Aedes aegypti [2]; 0.0080% concentration): 26%
- number of mosquitoes landed on the Warm Body (Aedes aegypti [2]; 0.008% in ethanol (Table 7, one replicate)): 61
- % of mosquitoes' repellency (Aedes aegypti [2]; 0.018% concentration): 26%
- % of mosquitoes' repellency (Aedes aegypti [2]; 0.040% concentration): 61%
- number of mosquitoes landed on the Warm Body (Aedes aegypti [2]; 0.04% in ethanol (Table 7, one replicate)): 22
- % of mosquitoes' repellency (Aedes aegypti [2]; 0.089% concentration): 60%
- % of mosquitoes' repellency (Aedes aegypti [2]; 0.20% concentration): 80%
- number of mosquitoes landed on the Warm Body (Aedes aegypti [2]; 0.2% in ethanol (Table 7, one replicate)): 9
- number of mosquitoes landed on the Warm Body (Aedes aegypti [2]; 0.447% in ethanol (Table 7, one replicate)): 3
- % of mosquitoes' repellency (Aedes aegypti [2]; 0.45% concentration): 93%
- % of mosquitoes' repellency (Aedes aegypti [2]; 1% concentration): 91%
- number of mosquitoes landed on the Warm Body (Aedes aegypti [2]; 1% in ethanol (Table 7, one replicate)): 8
- pest or weed control at 0.0016 % (Aedes aegypti [2]; [3]): 4 to 29%
- pest or weed control at 0.04 % (Aedes aegypti [2]; [3]): ~70%
- repulsion (in words) (Aedes aegypti [2]; concentrations lower than 0.04%): only low repulsion
